Our source for the IC50 values is PubChem BioAssay AID2305 (GlaxoSmithKline (GSK), 2010).

For this test, the system named is P. falciparum 3D7 growth, pLDH absorbance. In words: P. falciparum 3D7 growth inhibition, dose response, strain 3D7 (AID 2305).

A word on the IC50: it is the midpoint of a concentration-inhibition curve. Take `COc1ccc(Cl)cc1S(=O)(=O)Nc1cccc(CCN2CCC(N3CCCCC3)CC2)c1`: the IC50 stood at 700 nM.

`O=C(/C=C/c1ccc(Cl)cc1)NCCCCCN1CCC(c2c[nH]c3ccccc23)CC1` showed an IC50 of 840 nM. The molecule `Fc1ccc2nc(-c3cccc(-c4cccc(CNCC5CCCO5)c4)c3)[nH]c2c1` (stereo unspecified) had an IC50 of 510 nM. Then `CC(C)(C)N1CCC(N(Cc2ccc(-c3ccc(C(F)(F)F)cc3)cc2)C(=O)Cn2c(CCc3cccc(F)c3F)cc(=O)c3cccnc32)CC1`, with 710 nM. Molecule `CN1CCN(CCCN(Cc2ccc(-c3cccc(CNC4CCCC4)c3)cc2)C(=O)Nc2ccccc2)CC1` registered an IC50 of 1120 nM. Then `Cn1cc(-c2ccccc2C(=O)O)c(=O)c2cc(Cl)ccc21`, with 920 nM; and `Cc1cnc(C(=O)Nc2cccc(-c3cccc(-c4nc5c(C)cccc5[nH]4)c3)c2)cn1`, with 580 nM; and `O=C(NCc1ccccc1)c1nn(CCCN2CCC3(CC2)C(=O)NCN3c2ccccc2)cc1-c1ccc(Cl)c(Cl)c1`, with 1050 nM. For `Cc1cccc2[nH]c(-c3cccc(-c4ccc(NC(=O)COC(C)C)cc4)c3)nc12` the value was 1190 nM; for `Cc1c(C)n(Cc2ccccc2)c2ncnc(OC3CCN(CC(=O)NCC4CC4)CC3)c12`, 1120 nM; for `COc1cc(NCCCNCc2cn(S(=O)(=O)c3ccccc3)c3ccccc23)nc2ccccc12`, 390 nM. Turning to `Cc1cc(N2CCN(CC3CCCCC3)CC2)nc(Nc2ccc(Br)cc2)n1`, the IC50 came to 1090 nM. Then `COc1ccc(C(=O)[C@H]2C[C@@H]2CN2CC=C(c3c[nH]c4cccc(Br)c34)CC2)cc1`, with 930 nM; and `O=C(/C=C/c1ccc(Cl)cc1)NCCCCCN1CCN(C(=O)C=Cc2ccc(Cl)c(Cl)c2)CC1`, with 990 nM; and `O=C(COc1ccc(Cl)c(Cl)c1)NCCCCCN1CCCN(C(=O)Nc2cc(Cl)cc(Cl)c2)CC1`, with 1140 nM. Then `Cc1cc(-c2cccc3c(C(=O)N4CCc5cc6nccc(N7CCCN(C)CC7)c6cc54)cccc23)cc(C)n1`, with 440 nM; and `CC(C)C[C@H](NC(=O)c1ccc(OCCN2CCOCC2)cc1)C(=O)N[C@H](/C=N/N(C)C(=O)c1ccccc1)CCc1ccccc1`, with 270 nM. In turn, `CCn1ccc2c(N3CCCC3=O)cc(C(=O)N[C@@H](Cc3ccccc3)[C@H](O)CNCc3cccc(OC)c3)cc21` gave an IC50 of 590 nM. Then `COC(=O)Nc1ccc(-c2ccc(C(=O)NC3CCN(C[C@H](O)c4ccnc5ccc(OC)cc45)CC3)cc2)c(C)c1`, with 690 nM. In the case of `CC(C)(C)Oc1ccc(NC(=O)c2ccccc2O)cc1`, the IC50 is 1010 nM. Then `CN1CCCC1CCNC(=O)[C@H](CC1CCCCC1)NC(=O)c1ccc(O)c(-c2ccc(Cl)c(Cl)c2)c1` (stereo partly specified), with 740 nM. Molecule `COc1cccc2sc(N3CCN(C(=O)c4ccc([N+](=O)[O-])o4)CC3)nc12` showed an IC50 of 870 nM. Consider `Cc1ccc(OC2CCN(c3ccc(C(=O)NC4CC4)cn3)CC2)cc1`, for which the IC50 was 1300 nM.

The molecule `CCN(c1cc(C)nc(Nc2ccc(Cl)cc2)n1)[C@H]1CCN(Cc2ccccc2)C1` showed an IC50 of 860 nM. For the molecule `CN(C)CCCn1cc(C(=O)OC2C[C@H]3CC[C@@H](C2)N3C)c2cc(-c3ccccc3)ccc21` (stereo partly specified), the IC50 worked out at 840 nM. Then `O=C(Nc1cc(C(F)(F)F)ccc1N1CCOCC1)C(Cl)(Cl)Cl`, with 370 nM. Then `N=C(N)c1ccc(-c2cc3ccc(C(=N)N)cc3[nH]2)cc1`, with 60 nM; and `COc1ccc(NC(=O)/C=C/c2cc(F)cc(C(F)(F)F)c2)cc1OCCN(C(C)C)C(C)C`, with 670 nM; and `CN1CCC(c2nc(N)no2)C1` (stereo unspecified), with 980 nM. The molecule `Fc1ccc([C@H]2N=C(SCCSC3=N[C@H](c4ccc(F)cc4)[C@H](c4ccc(F)cc4)N3)N[C@H]2c2ccc(F)cc2)cc1` yielded an IC50 of 910 nM. The molecule `COc1ccc2nccc([C@@H](O)CN3CCC(NCc4ccc(OC)c(NC=O)c4)CC3)c2c1` showed an IC50 of 750 nM.

As for `CCCCCc1ccc(NC(=O)Nc2ccc(Cn3ncc(N4CCCNCC4)c(Cl)c3=O)cc2)cc1`, the IC50 came to 1140 nM.

The molecule `COc1ccccc1CN1CCC(CNC(=O)c2cc(-c3cccc(C(F)(F)F)c3)cs2)C1` (stereo unspecified) came in with an IC50 of 1310 nM. In the case of `O=C(Nc1ccc(Cl)cc1)c1ccc(CN2CCCN(Cc3cccc(F)c3)CC2)cc1`, the IC50 was 1030 nM. Then `O=C(O)CNCC(O)c1ccccc1` (stereo unspecified), with 180 nM; and `CCN(CCNS(C)(=O)=O)c1ccc(N)c(C)c1`, with 880 nM. For `CC(C)N1CCN(C(=O)c2ccc(CNCCCN3CCN(c4cccc(Cl)c4Cl)CC3)o2)CC1`, the 50% inhibitory concentration (IC50) was determined as 740 nM. Then `O=C(NCCCCN1CCC(c2ccc3c(c2O)CCCC3)CC1)c1ccc(NC(=O)c2ccc(Cl)cc2)cc1`, with 240 nM; and `CNC(=O)c1ccc2nc(-c3ccc(-c4ccccc4)cc3)n(CC3CCN(CC4CCCC4)CC3)c2c1`, with 40 nM; and `N#Cc1ccc(N[C@@H](CC2CCCCC2)C(=O)NCc2cc(Cl)cc(Cl)c2)c2ccccc12`, with 1100 nM. Take `CN(CCc1ccccc1)c1ncc(-c2cccc(CNCCC3CCCN3C)c2)cn1` (stereo unspecified): the IC50 was determined as 870 nM. For `COc1ccc(OC)c(C=NNc2nc3ccccc3[nH]2)c1` the value was 730 nM; for `Cc1cc(OCc2ccncc2)cc2c1C(=O)CC(C)(C)O2`, 180 nM. Then `Cc1cc2nc(-c3cc(Br)ccc3O)c(-c3cc(Br)ccc3O)nc2cc1C`, with 850 nM. For `CCOc1ccccc1NC(=O)Nc1ccc2c(c1)CCN(C1CCC1)CC2` the value was 1110 nM. In turn, `O=C(/C=C/c1ccc(Cl)c(Cl)c1)N1CCC(CN2CCC(c3cn(CC(=O)N4CCCCC4)c4ccccc34)CC2)CC1` yielded an IC50 of 750 nM. Then `c1cc(-c2ccc(CNCCCn3ccnc3)cc2)cc(-c2nc3ccccc3[nH]2)c1`, with 110 nM. Molecule `O=C(/C=C/c1cccc(Cl)c1)Nc1ccc2nc(CN3CCCC3)ccc2c1` had an IC50 of 260 nM. In turn, `CN(C)c1cc2c(Nc3ccc4nc(Cc5ccccc5)[nH]c4c3)ncnc2cn1` showed an IC50 of 1140 nM.

Consider `O=S(=O)(NCCN1CCCC1)c1ccc(-c2ccc(CNCc3ccccc3)cc2)cc1`, for which the IC50 was found to be 780 nM.

`CCOC(=O)N(C)/N=C/[C@H](CCc1ccccc1)NC(=O)[C@H](CC(C)C)NC(=O)c1cc2cccc(OC)c2o1`: the IC50 was 560 nM. `O=C(/C=C/c1ccc(C(F)(F)F)cc1)NCCCCCN1CCN(C(=O)Nc2ccc(Cl)cc2)CC1` yielded an IC50 of 1010 nM. `Cc1cc(NC(=O)Nc2cccc(C#N)c2)c2ccccc2n1` gave an IC50 of 580 nM.

Consider `NC(N)=NN=Cc1cc2ccccc2c2ccccc12`, for which the IC50 amounted to 180 nM. For `O=C(NC1CCC1)C1CCN(C(c2ccccc2)c2cc(F)cc(F)c2)CC1` (stereo unspecified) the value was 800 nM; for `COc1ccc(CCn2c(=N)c(C(=O)NCc3ccc(C)cc3)cc3c(=O)n4ccccc4nc32)cc1`, 1130 nM.

For `CS(=O)(=O)NCCCNCc1ccc(-c2ccc(-c3nc4ccc(F)cc4[nH]3)s2)cc1`, the IC50 came out at 810 nM. The molecule `CCCNC(=O)c1cncc(-c2ccc(CNC3Cc4ccccc4C3)cc2)c1` registered an IC50 of 850 nM. Then `c1cc(CN2CCN(c3ccncc3)CC2)cc(-c2cccc(-c3nc4ccccc4[nH]3)c2)c1`, with 130 nM. Regarding `N=C(N)c1ccc(OCCCCCOc2ccc(C(=N)N)cc2)cc1`, the IC50 was determined as 140 nM. `O=C(Nc1ccc([N+](=O)[O-])cc1Cl)c1cc2ccccc2cc1O` returned an IC50 of 1010 nM. Regarding `O=C(Nc1ccc(Cl)c(C(F)(F)F)c1)c1ccc(Cl)c([N+](=O)[O-])c1`, the IC50 is 1120 nM.

The molecule `CCCCNc1cc(C)nc(NCc2ccccc2)n1` gave an IC50 of 970 nM.

`O=C(Nc1ccc(C(=O)OCC2CCCCC2)cc1)N[C@@H](Cc1ccc(O)cc1)C(=O)NC1CCN(Cc2ccc(O)cc2)C1` (stereo partly specified) showed an IC50 of 870 nM. For `CC1(C)[C@H]2CC[C@@H](CNc3nc(NCCc4cnc[nH]4)nc(Nc4ccc(Oc5ccccc5)cc4)n3)[C@@H]1C2` the value was 670 nM; for `CN1CCCN(Cc2ccc(-c3ccc(NC(=O)c4ccc(C#N)cc4)cc3)cc2)CC1`, 1020 nM; for `O=C(Cc1cccc(Cl)c1)Nc1cccc(-c2c[nH]c3nc(Nc4ccccc4)ncc23)c1`, 680 nM. With `Cc1nc(NCc2ccccc2)cc(Nc2cc(NCc3ccccc3)nc(C)n2)n1`, the IC50 was 970 nM.

The molecule `CCCCCn1c(Sc2ccc(C#N)c([N+](=O)[O-])c2)nnc1-c1cc(OC)cc(OC)c1` came in with an IC50 of 960 nM.

As for `O=C(c1ccccc1N=Nc1c(-c2ccccc2)[nH]n(-c2ccccc2)c1=O)N1CCOCC1`, the half-inhibitory concentration (IC50) is 350 nM. `CC(C)c1ccc(NC(=O)NC2CCN(CCCCCN(C)C(=O)/C=C/c3ccc(Cl)c(Cl)c3)C2)cc1` (stereo unspecified): the IC50 is 830 nM. In turn, `O=C(Nc1cc(C(F)(F)F)ccc1-n1cncn1)C1(c2ccccc2)CC1` yielded an IC50 of 60 nM.

On to `N=c1n(CCN2CCCCC2)c2ccccc2n1CC(O)c1cccc(Br)c1` (stereo unspecified), for which the IC50 is 1140 nM. Molecule `CN1CCN(c2ccc(-c3cccc(NC(=O)c4cccc([N+](=O)[O-])c4)c3)nn2)CC1` registered an IC50 of 530 nM. Then `CCCCN1CCN(c2cc(NS(=O)(=O)c3cccc(C(=O)Nc4ccc(C(F)(F)F)cc4)c3)ccc2OC)CC1`, with 690 nM; and `CC(C)c1ccc(C=CC(=O)N2CCC(CCN3CCC(c4c[nH]c5ccccc45)CC3)CC2)cc1`, with 1260 nM; and `COc1ccc2cc(CNCCCCCCNCc3ccc4cc(OC)ccc4c3)ccc2c1`, with 620 nM.

For `CN1CCN(c2cccc(Nc3nccc(NCC(O)c4ccccc4)n3)c2)CC1` (stereo unspecified), the IC50 is 720 nM. For `CN(Cc1cnc2nc(N)nc(N)c2n1)c1ccc(C(=O)NC(CCC(=O)O)C(=O)O)cc1` (stereo unspecified) the value was 180 nM; for `O=C(Nc1ccon1)c1cc(-c2cccnc2)nc2ccc(Cl)cc12`, 790 nM; for `CC(C)(C)c1ccc(CNC(=O)c2cc(CNC3CCNCC3)ccc2O)cc1`, 710 nM. For `CCCCCCNCCOc1ccc(-c2nc(-c3ccccc3)c(-c3ccccc3)[nH]2)cc1` the value was 670 nM; for `O=C(Nc1cc(Cl)c(Cl)cc1NC(=O)c1cccc(-c2ccccc2)c1O)c1cccc(-c2ccccc2)c1O`, 510 nM. For `COc1ccccc1Nc1nc(C)cc(NCc2ccc(-n3ccnc3)cc2)n1`, the IC50 is 1050 nM. In turn, `COc1ccc(CNc2cc(C)nc3sc4c(c23)CCC2(C4)OCCO2)cc1` had an IC50 of 950 nM. As for `CNC(=O)/C=C/c1cc(NC(=O)Nc2ccnc3c(Br)cccc23)ccc1OC`, the IC50 stood at 860 nM.
